Assay results taken from patent US20200157151A1, “PEPTIDE COMPOUNDS, CONJUGATE COMPOUNDS AND USES THEREOF FOR TREATING INFLAMMATORY DISEASES” (TRANSFERT PLUS, S.E.C., priority 2017, published 2020).
Square brackets hold non-standard residues; d marks the D form. Peptide text beside a SMILES is read from it. Nle = CCCC[C@H](N)C(=O)O

Key:
[1] = molecular target: T1, Sortilin receptor (Homo sapiens, UniProt Q99523); test: Sortilin-mediated uptake in HT-29 cells (siRNA silencing and competition with Sortilin ligands); format: cell-based; conditions: 5 μM; for Uptake when Sortilin expression is reduced by siRNA: 2 h, 37° C., siSortilin vs siScrambled HT-29 cells, FIG. 5A; for Uptake in the presence of Sortilin ligands: excess free peptide (50 μM), neurotensin (10 μM) or progranulin (1 nM), HT-29 cells, FIG. 5B
T1 construct: Sortilin-deficient (siSortilin) HT-29 colorectal cancer cells; endogenous in cells; host or cells: HT-29 human colorectal cancer cells
T1 sequence (Q99523 78-831): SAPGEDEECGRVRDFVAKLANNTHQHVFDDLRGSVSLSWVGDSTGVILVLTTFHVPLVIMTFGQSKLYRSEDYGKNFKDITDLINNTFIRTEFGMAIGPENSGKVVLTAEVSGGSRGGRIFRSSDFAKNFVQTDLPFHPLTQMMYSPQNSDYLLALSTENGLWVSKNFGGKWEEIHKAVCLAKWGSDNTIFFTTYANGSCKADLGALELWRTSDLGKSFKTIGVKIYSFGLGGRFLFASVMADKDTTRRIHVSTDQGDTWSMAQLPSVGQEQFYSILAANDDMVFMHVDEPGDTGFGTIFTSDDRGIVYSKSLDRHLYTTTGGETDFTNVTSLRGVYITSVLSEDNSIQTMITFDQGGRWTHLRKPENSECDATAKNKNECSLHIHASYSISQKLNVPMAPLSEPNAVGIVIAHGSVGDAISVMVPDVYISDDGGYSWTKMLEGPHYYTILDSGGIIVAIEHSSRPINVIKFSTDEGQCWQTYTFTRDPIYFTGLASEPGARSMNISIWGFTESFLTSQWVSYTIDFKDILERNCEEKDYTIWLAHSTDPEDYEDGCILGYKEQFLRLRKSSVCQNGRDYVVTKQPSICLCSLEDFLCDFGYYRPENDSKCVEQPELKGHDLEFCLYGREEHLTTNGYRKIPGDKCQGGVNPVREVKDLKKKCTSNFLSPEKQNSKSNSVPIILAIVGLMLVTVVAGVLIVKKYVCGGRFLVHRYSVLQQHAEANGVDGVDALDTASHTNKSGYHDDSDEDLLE
Protocol: FIG. 5 is a series of charts showing Sortilin-mediated uptake of KBC-201 in human colorectal cancer cells, FIG. 5A) Uptake of 5 μM of KBC-201 or free curcumin were performed at 37° C. in control (siScrambled) or Sortilin-deficient (siSortilin) HT-29 colorectal cancer cells. After a 2 h incubation, cells were trypsinized to remove non-internalized products, washed 3-times with ice-cold PBS and cell-associated fluorescence was quantified using a BD Accuri™ C6 flow cytometer. […] Cell-associated fluorescence uptake was quantified using a BD Accuri™ C6 flow cytometer.
(§1) The uptake of Curcumin conjugate or free Curcumin was measured as a function of time in human HT-29 colon cancer cells (FIG. 4). […] Indeed, the Curcumin conjugate (KBC-201) is less fluorescent by about 2-3 folds when compared to free Curcumin. […] The uptake of both KBC-201 and free Curcumin was next measured in the presence of Sortilin ligands (FIG. 5B). […] Taken together, data of the pharmacological inhibition using Sortilin ligands and the silencing of Sortlin expression confirm that the Curcumin conjugate is internalized via a Sortilin-dependent mechanism.

[2] = Stability at room temperature followed by absorbance over time; conditions: FIG. 11
Excerpt: FIG. 11 is a graph showing absorbance of Curcumin conjugates and free Curcumin.

[3] = system: human HT-29 colorectal cancer cells; test: Time-course uptake by flow cytometry (cell-associated fluorescence); format: cell-based; conditions: 5 μM, 37° C., HT-29 cells, FIG. 4B
Protocol: FIG. 4 is a series of charts illustrating higher and sustained uptake of KBC-201 (FIG. 4A). At the same concentration (5 μM), KBC-201 generates about half the fluorescence compared to free curcumin (Ex.: 488 nm, Em.: 530 nm) (FIG. 4B). Time-course uptake of KBC-201 (full line) and free curcumin (dotted line) in human HT-29 colorectal cancer cells. HT-29 cells were incubated at 37° C. with 5 μM of KBC-201 or curcumin at various times, trypsinized, washed, and cell-associated fluorescence uptake was quantified using a BD Accuri™ C6 flow cytometer.
as §1

[4] = molecular target: T2, Human recombinant Sortilin chimera protein (Homo sapiens, UniProt Q99523); test: Surface plasmon resonance (Biacore) interaction with immobilized Sortilin; format: binding; conditions: SPR; for Affinity for Sortilin, in words: comparison between peptides and Sortilin ligands
T2 construct: unnamed fusion partner or tag ('chimera'); purchased R&D Systems 3154-ST
T2 sequence (Q99523 78-755 limits assumed): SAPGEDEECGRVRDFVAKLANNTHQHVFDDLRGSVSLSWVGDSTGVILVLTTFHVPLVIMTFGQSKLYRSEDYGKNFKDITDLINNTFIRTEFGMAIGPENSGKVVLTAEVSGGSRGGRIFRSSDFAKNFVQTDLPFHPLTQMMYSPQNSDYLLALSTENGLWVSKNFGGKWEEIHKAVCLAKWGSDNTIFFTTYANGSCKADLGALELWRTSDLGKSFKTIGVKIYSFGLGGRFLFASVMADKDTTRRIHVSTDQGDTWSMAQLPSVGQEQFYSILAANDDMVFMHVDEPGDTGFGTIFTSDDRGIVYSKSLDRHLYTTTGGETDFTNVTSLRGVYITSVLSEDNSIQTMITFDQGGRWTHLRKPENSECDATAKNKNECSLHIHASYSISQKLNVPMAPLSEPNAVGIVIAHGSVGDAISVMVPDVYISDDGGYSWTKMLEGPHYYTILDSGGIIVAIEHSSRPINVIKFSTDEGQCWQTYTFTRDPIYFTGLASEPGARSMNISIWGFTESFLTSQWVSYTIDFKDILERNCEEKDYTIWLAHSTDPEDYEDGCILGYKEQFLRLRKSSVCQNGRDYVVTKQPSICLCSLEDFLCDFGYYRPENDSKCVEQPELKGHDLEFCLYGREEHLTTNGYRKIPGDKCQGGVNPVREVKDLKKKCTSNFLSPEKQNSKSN
Excerpt: FIG. 12 is schematic representation of real time interaction analysis using Surface Plasmon Resonance (SPR) and a Biacore instrument.
Further tests were made so as to investigate interaction of the peptide compounds of the present disclosure with Sortilin. Such tests were made using real-time surface plasmon resonance (Biacore) (see FIG. 12).

[5] = system: TNF-α-induced IκB phosphorylation in human HT-29 colon cancer cells; test: Inhibition of TNF-α-induced IκB phosphorylation in HT-29 cells; format: cell-based; conditions: 24 h pre-treatment, 100 ng/mL TNF-α 5 min, HT-29, FIG. 17; at a lower concentration than Curcumin
Excerpt: FIG. 8A) Immunodetection of IκB phosphorylation by TNF-α is shown.
One of the inflammatory pathways induced by TNF-α leads to the phosphorylation of IkB (FIG. 1), a key protein in inflammation. As expected, the addition of TNF-α to human HT-29 colon cancer cells triggered the phosphorylation of IkB (pIkB) (FIG. 8).
One of the inflammatory pathways induced by TNF-α leads to the phosphorylation IkB (see FIG. 1), a key protein in inflammation. It was observed that the addition of TNF-α to human HT-29 colon cancer cells triggered the phosphorylation of IkB (pIkB) (FIGS. 17A and 17B).

[6] = system: TNF-α-induced NFκB phosphorylation in human MDA-MB231 breast cancer cells; test: Inhibition of TNF-α-induced NFκB phosphorylation in MDA-MB231 cells; format: cell-based; conditions: 24 h pre-treatment, 100 ng/mL TNF-α 5 min, MDA-MB231, FIG. 18
Excerpt: FIG. 9A) Immunodetection of phosphorylated NFκB by TNF-α is shown.
FIGS. 9 and 10 are other examples of the Curcumin conjugate (KBC-201)'s effect on the TNF-α-induced signaling pathways in two other cancer cell models.
Results presented in FIGS. 18A and 18B show now that the peptide alone (KBP-201) can reduce the TNF-α-induced NFκB phosphorylation by about 30%.
In FIG. 18A, immunodetection of NFκB phosphorylation by TNF-α is shown.

[7] = system: TNF-α-induced COX-2 expression in human HT-29 colon cancer cells; conditions: 2 h pre-treatment, 10 ng/mL TNF-α 24 h, HT-29, FIG. 7
Protocol: (§2) Cells were pre-treated for 2 h with indicated compounds in serum-free medium before the addition of 10 ng/mL TNF-α for 24 h. Cells were lysed and the levels protein expression of COX-2 were monitored by immunoblotting. […] For each sample, the COX-2 level was corrected for GAPDH (a loading control) and normalized to those seen in TNF-α control (value=100%).
as §2, with “the” for “the levels”, “expression levels” for “expression”

## COc1cc(/C=C/C(=O)CC(=O)/C=C/c2ccc(O)c(OC)c2)ccc1O [Curcumin, reference compound]
[1]; listed as free Curcumin
  Uptake when Sortilin expression is reduced by siRNA: unaffected
  Uptake in the presence of Sortilin ligands: unaffected by none of them
[1]; listed as free curcumin
  Uptake when Sortilin expression is reduced by siRNA: not that of free curcumin
  Uptake in the presence of Sortilin ligands: not that of free curcumin
[2]
  Stability (absorbance over time): decreased more rapidly over time
[3]; listed as free Curcumin
  Uptake over time (cell-associated fluorescence): transient and low intracellular accumulation
[3]; listed as free curcumin
  Uptake over time (cell-associated fluorescence): transient uptake

## CCCC[C@H](NC(=O)[C@H](CC(N)=O)NC(=O)[C@H](CCCNC(=N)N)NC(=O)[C@@H](NC(=O)CNC(=O)[C@H](C)NC(=O)[C@H](CCCCN)NC(=O)[C@H](C)NC(=O)[C@H](CCCNC(=N)N)NC(=O)[C@@H](NC(=O)CNC(C)=O)C(C)C)C(C)C)C(=O)N[C@@H](Cc1ccccc1)C(=O)N[C@@H](CCCCN)C(=O)N[C@@H](CO)C(=O)N[C@@H](CCC(=O)O)C(=O)N[C@@H](CO)C(=O)N[C@@H](Cc1ccc(O)cc1)C(=O)O [KBP-106] (Ac-GVRAKAGVRN[Nle]FKSESY-OH; C-terminus assumed)
[4]
  Affinity for Sortilin, in words: better affinity for Sortilin than Neurotensin

## CC(=O)N[C@@H](Cc1ccc(O)cc1)C(=O)N[C@@H](CCCCN)C(=O)N[C@@H](CO)C(=O)N[C@@H](CC(C)C)C(=O)N[C@@H](CCCNC(=N)N)C(=O)N[C@@H](CCCNC(=N)N)C(=O)N[C@@H](CCCCN)C(=O)N[C@@H](C)C(=O)N1CCC[C@H]1C(=O)N[C@@H](CCCNC(=N)N)C(=O)N[C@@H](Cc1c[nH]c2ccccc12)C(=O)N[C@@H](CC(=O)O)C(=O)N[C@@H](C)C(=O)N1CCC[C@H]1C(=O)N[C@@H](CC(C)C)C(=O)N[C@@H](CCCNC(=N)N)C(=O)N[C@@H](CC(=O)O)C(=O)N1CCC[C@H]1C(=O)N[C@@H](C)C(=O)N[C@@H](CC(C)C)C(=O)N[C@@H](CCCNC(=N)N)C(=O)N[C@@H](CCC(N)=O)C(=O)N[C@@H](CC(C)C)C(=O)N[C@@H](CC(C)C)C(=O)O [KBP-201]
[5]
  Reduction of TNF-α-induced phosphorylation of IkB, maximal effect: 40%
[4]
  Affinity for Sortilin, in words: better affinity for Sortilin than Neurotensin
[4]; listed as KB-P201
  Affinity for Sortilin, in words: better affinity
[6]
  Reduction of TNF-α-induced NFκB phosphorylation: about 30%

## Acetyl-GVRAK(curcumin)AGVRN(Nle)FK(curcumin)SESY [KBC-106]
[7]
  Inhibition of TNFα-induced COX-2 expression, comparison of two conjugates: more potent than free Curcumin
[2]
  Stability (absorbance over time): more stable

## RAP: receptor-associated protein, a Sortilin ligand [reference compound]
[4]; Sortilin immobilized on CM5 chip, KD calculated with Bia Evaluation software from sensorgrams of FIGS. 13-16, read-out: Affinity (KD)
  Kd: 4.2 nM
